Laboratory results taken from patent US8778966B2, “Quinolinone derivatives as PARP and tank inhibitors” (Janssen Pharmaceutica, NV, priority 2007, dated 2014).

How the values were obtained:
Assay type in all cases: cell-based, human
PC-3 cells = assay: Antiproliferative activity, Alamar Blue assay, PC-3 cells; details: Homo sapiens, PC-3, PC3 cells; read-out: PC3 antiproliferative activity pIC50 (converted)
Outline: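 Resazurin-based fluorescence (540 nm ex/590 nm em) measured after 4-day compound treatment plus 24 hrs dye incubation at 37° C. Cells plated at 4.5×10^3 cells/ml, adhered 24 hr first. pIC50 from probit-derived IC50 on % viable cells versus untreated, triplicate wells.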

HCT116 cells [1] = assay: Antiproliferative activity, Alamar Blue assay, HCT116 cells; details: Homo sapiens, HCT-116, HCT116 cells; read-out: HCT116 antiproliferative activity pIC50 (converted)
Outline: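 Readout is resazurin fluorescence (ex 540, em 590 nm) after a 4 h dye incubation at 37 °C, following 4-day compound treatment of HCT116 cells plated 24 h earlier. Results expressed as % viable cells versus untreated; pIC50 derived from probit-fitted IC50.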

HCT116 cells [2] = assay: Mitotic arrest assay on HCT116 cells (phospho-histone H3 Ser10); details: Homo sapiens, HCT-116, HCT116 cells; lowest active dose; read-out: Mitotic arrest HCT116 LAD (converted)
Description: Phosphorylation of histone H3 is tightly correlated with chromosome condensation during both mitosis and meiosis. The assay is a cellular immunosorbent assay wherein the sole antibody is labelled with a detectable conjugate. The phospho-histone H3 (ser10) antibody detects endogenous levels of histone H3 only when phosphorylated at serine 10. […] In parallel with antibody detection, the nuclei of the cells are stained with Hoechst 33342 for cell-counting. Cells are detected and analysed using the InCell Analyzer 1000 from GE Healthcare. Since both the antibody-detection as well as the Hoechst-staining are in the nucleus, the dual area object intensity algorithm is used for analysing the wells.
All compounds tested were dissolved in DMSO and further dilutions were made in culture medium. Final DMSO concentrations never exceeded 0.1% (v/v).
HCT116 cells (supplier: ATCC) (human colon carcinoma cell line) were cultivated in Mc Coy's 5 A medium (supplier: Gibco) supplemented with 10% foetal calf serum (FCS), 2 mM L-glutamine and gentamycin at 37° C. in a humidified incubator with 5% CO2.
HCT116 cells were seeded at 20.000 cells per well in a 96 well plate (black/clear bottom, poly-D-lysine coated, supplier Greiner), cultured overnight to adhere to the bottom of the plate and treated with compound for 6 hours at 37° C. in a humidified incubator. After incubation, the medium was removed and cells were fixed using 100 μl/well formaldehyde (Accustain®, Formaline solution 10% neutral buffered, contains 4% formaldehyde w/v, supplier: Sigma) was added. After incubation for 15 minutes at room temperature, the formaldehyde was removed and cells were incubated with methanol (−20° C.) for 15 minutes at room temperature. After incubation, cells were washed once with phosphate-buffered saline (PBS —CaCl2, —MgCl2, suppier: Gibco)/0.05% Tween 20. The anti-phospho-histone H3 (Ser10) Alexa Fluor 488 antibody (supplier: Cell signalling) is used for detection of the cells inmitosis. The antibody was diluted 1/50 in 5% bovine serum albumins (BSA) and 50 μl/well was used for incubation overnight at room temperature in the dark.
A 1/2000 dilution of Hoechtst 33342 (10 mg/ml, supplier: Invitrogen) was made and 100 μl/well was added for at least 30 minutes before acquiring images. The absorbance at dual wavelengths of 360/480 nm was measured using the InCell Analyzer 1000 from GE Healthcare and the results were then analyzed.
For each experiment, controls (containing no drug) and a blank incubation (containing no cells or drugs) were run in parallel. Analysis was done in triplicate. Low cell count wells were invalidated. The blank value was subtracted from all control and sample values and divided by the standard deviation of the measurements. The compounds were considered active when the obtained value (sigma) was >5. Herein the effects of test compounds are expressed as the lowest dose giving a sigma value of >5 (LAD) (see table F-2).

CCc1cc2ccc(C(C)(C#N)Cc3cc(Cl)cc(Cl)c3)cc2[nH]c1=O (stereo not drawn) [Compound 141]
IC50 (PC-3 cells): 0.0794 µM | IC50 (HCT116 cells [1]): 0.126 µM | minimal effective concentration (HCT116 cells [2]): 0.1 µM

CCc1cc2ccc(C(C)(C#N)Cc3ccc(F)cc3Br)cc2[nH]c1=O (stereo not drawn) [Compound 139]
IC50 (PC-3 cells): 0.794 µM | IC50 (HCT116 cells [1]): 0.126 µM | minimal effective concentration (HCT116 cells [2]): 0.1 µM

CCc1cc2ccc(C(C)(C#N)CCOc3cccc4ccccc34)cc2[nH]c1=O (stereo not drawn) [Compound 158]
IC50 (PC-3 cells): 0.794 µM | IC50 (HCT116 cells [1]): 1.26 µM | minimal effective concentration (HCT116 cells [2]): 0.1 µM

CCc1cc2ccc(C(C)(C#N)Cc3cccc(C(F)(F)F)c3)cc2[nH]c1=O (stereo not drawn) [Compound 109]
IC50 (PC-3 cells): 0.631 µM | IC50 (HCT116 cells [1]): 0.251 µM | minimal effective concentration (HCT116 cells [2]): 0.316 µM

CCc1cc2ccc(C(C)(C#N)CC3CN(C)c4ccccc4O3)cc2[nH]c1=O (stereo not drawn) [Compound 156]
IC50 (PC-3 cells): 2.51 µM | IC50 (HCT116 cells [1]): 2 µM | minimal effective concentration (HCT116 cells [2]): 0.316 µM

CCc1cc2ccc(C(C)(C#N)Cc3cccc(N)c3)cc2[nH]c1=O (stereo not drawn) [Compound 15]
IC50 (PC-3 cells): 2.51 µM | IC50 (HCT116 cells [1]): 1 µM | minimal effective concentration (HCT116 cells [2]): 1 µM

CCc1cc2ccc(C(C)(C#N)Cc3ccc4ccccc4c3)cc2[nH]c1=O (stereo not drawn) [Compound 122]
IC50 (PC-3 cells): 0.398 µM | IC50 (HCT116 cells [1]): 0.251 µM | minimal effective concentration (HCT116 cells [2]): 0.316 µM

CCc1cc2ccc(C(C)(C#N)Cc3ccccc3C)cc2[nH]c1=O (stereo not drawn) [Compound 105]
IC50 (PC-3 cells): 1 µM | IC50 (HCT116 cells [1]): 0.251 µM | minimal effective concentration (HCT116 cells [2]): 0.1 µM

CCc1cc2ccc(C(C)(C#N)Cc3cccc(C)c3)cc2[nH]c1=O (stereo not drawn) [Compound 107]
IC50 (PC-3 cells): 0.251 µM | IC50 (HCT116 cells [1]): 0.2 µM | minimal effective concentration (HCT116 cells [2]): 0.316 µM

CCc1cc2ccc(C(C)(C#N)CCOc3ccc(C(C)(C)C)cc3)cc2[nH]c1=O (stereo not drawn) [Compound 167]
IC50 (PC-3 cells): 7.94 µM | IC50 (HCT116 cells [1]): > 10 µM | minimal effective concentration (HCT116 cells [2]): 1 µM

CCc1cc2ccc(C(C)(C#N)Cc3cccc(S(C)(=O)=O)c3)cc2[nH]c1=O (stereo not drawn) [Compound 129]
IC50 (PC-3 cells): 5.01 µM | IC50 (HCT116 cells [1]): 1.58 µM | minimal effective concentration (HCT116 cells [2]): 0.316 µM

CCc1cc2ccc(C(C)(C#N)Cc3ccc(Br)cc3)cc2[nH]c1=O (stereo not drawn) [Compound 118]
IC50 (PC-3 cells): 1.26 µM | IC50 (HCT116 cells [1]): 2 µM | minimal effective concentration (HCT116 cells [2]): 1 µM

CCc1cc2ccc(C(C)(C#N)CCOc3ccc(Br)cc3)cc2[nH]c1=O (stereo not drawn) [Compound 160]
IC50 (PC-3 cells): 1.26 µM | IC50 (HCT116 cells [1]): 2 µM | minimal effective concentration (HCT116 cells [2]): 0.316 µM

CCc1cc2ccc(C(C)(C#N)CCOc3cccc(Cl)c3)cc2[nH]c1=O (stereo not drawn) [Compound 151]
IC50 (PC-3 cells): 2 µM | IC50 (HCT116 cells [1]): 0.631 µM | minimal effective concentration (HCT116 cells [2]): 0.316 µM

CCc1cc2ccc(C(C)(C#N)Cc3cc(F)cc(F)c3)cc2[nH]c1=O (stereo not drawn) [Compound 128]
IC50 (PC-3 cells): 0.2 µM | IC50 (HCT116 cells [1]): 0.126 µM | minimal effective concentration (HCT116 cells [2]): 0.1 µM

CCc1cc2ccc(C(C)(C#N)Cc3cc(C)cc(C)c3)cc2[nH]c1=O (stereo not drawn) [Compound 125]
IC50 (PC-3 cells): 0.251 µM | IC50 (HCT116 cells [1]): 0.2 µM | minimal effective concentration (HCT116 cells [2]): 0.1 µM

CCc1cc2ccc(C(C)(C#N)CCOc3ccc4ccccc4c3)cc2[nH]c1=O (stereo not drawn) [Compound 157]
IC50 (PC-3 cells): 1 µM | IC50 (HCT116 cells [1]): 1.58 µM | minimal effective concentration (HCT116 cells [2]): 0.316 µM

CCc1cc2ccc(C(C)(C#N)Cc3ccc(C#N)cc3)cc2[nH]c1=O (stereo not drawn) [Compound 111]
IC50 (PC-3 cells): > 10 µM | IC50 (HCT116 cells [1]): 5.01 µM | minimal effective concentration (HCT116 cells [2]): 3.16 µM

CCc1cc2ccc(C(C)(C#N)Cc3cccc(C(F)(F)F)c3F)cc2[nH]c1=O (stereo not drawn) [Compound 134]
IC50 (PC-3 cells): 1 µM | IC50 (HCT116 cells [1]): 0.501 µM | minimal effective concentration (HCT116 cells [2]): 0.316 µM

Cc1cc2ccc([C@@](C)(C#N)CCOc3ccccc3)cc2[nH]c1=O (single isomer, unassigned) [Compound 164]
IC50 (PC-3 cells): 1 µM | IC50 (HCT116 cells [1]): 1 µM | minimal effective concentration (HCT116 cells [2]): 0.1 µM
